Test results: US9073821B2, “Hydroxamic acid derivative” (priority 2010, dated 2015)

What follows are molecules tested against Pseudomonas aeruginosa LpxC enzyme (Pseudomonas aeruginosa (strain ATCC 15692 / DSM 22644 / CIP 104116 / JCM 14847 / LMG 12228 / 1C / PRS 101 / PAO1), UniProt P47205) (assay: biochemical). Settings: inhibitory activity on Pseudomonas aeruginosa LpxC enzyme, class symbols A/B/C; read-out: Enzyme inhibitory activity.
Format: biochemical

Question: Which IC50 does the source give for `CNC(=O)C(C(=O)NO)N(CCOC)C(=O)c1ccc(-c2ccccc2)cc1` (centres unmarked) [Compound 166, 2-[(biphenyl-4-ylcarbonyl)(2-methoxyethyl)amino]-N-hydroxy-N′-methylpropanediamide] here?
Answer: The IC50 was 0.01 to 0.1 µM.

Question: `CNC(=O)C(C(=O)NO)N(C)C(=O)c1ccc(C#Cc2ccc(CN3CCOCC3)cc2)cc1` (centres unmarked) [Compound 167, N-hydroxy-N′-methyl-2-[methyl(4-{[4-(morpholin-4-ylmethyl)phenyl]ethynyl}benzoyl)amino]propanediamide] was tested. Which IC50 did it give?
Answer: The IC50 was < 0.01 µM.

Question: `CNC(=O)C(C(=O)NO)N(C)C(=O)c1ccc(-c2ccncc2)cc1` (centres unmarked) [Compound 169, N-hydroxy-N′-methyl-2-{methyl[4-(pyridin-4-yl)benzoyl]amino}propanediamide] was tested. Which IC50 did it give?
Answer: The IC50 was 0.01 to 0.1 µM.

Question: With `CN(C(=O)c1ccc(-c2ccccc2)cc1)C(C(=O)NO)C(=O)NCc1ncccn1` (centres unmarked) [Compound 170, 2-[(biphenyl-4-ylcarbonyl)(methyl)amino]-N-hydroxy-N′-(pyrimidin-2-ylmethyl)propanediamide] as the molecule, how does the IC50 read?
Answer: Its IC50 is > 0.1 µM.

Question: `CCCNC(=O)C(C(=O)NO)N(C)C(=O)c1ccc(-c2ccccc2)cc1` (centres unmarked) [Compound 171, 2-[(biphenyl-4-ylcarbonyl)(methyl)amino]-N-hydroxy-N′-propylpropanediamide] was tested. Which IC50 did it give?
Answer: Its IC50 is > 0.1 µM.

Question: `CN(C)C(=O)CNC(=O)C(C(=O)NO)N(C)C(=O)c1ccc(-c2ccccc2)cc1` (centres unmarked) [Compound 173, 2-[(biphenyl-4-ylcarbonyl)(methyl)amino]-N-[2-(dimethylamino)-2-oxoethyl]-N′-hydroxypropanediamide] was tested. Which IC50 did it give?
Answer: The IC50 was > 0.1 µM.

Question: For `CNC(=O)C(C(=O)NO)N(CC(F)F)C(=O)c1ccc(-c2ccccc2)cc1` (centres unmarked) [Compound 174, 2-[(biphenyl-4-ylcarbonyl)(2,2-difluoroethyl)amino]-N-hydroxy-N′-methylpropanediamide], which IC50 is on record?
Answer: Its IC50 is < 0.01 µM.

Question: For `CN(C(=O)c1ccc(-c2ccccc2)cc1)C(C(=O)NO)C(=O)NC1CC1` (centres unmarked) [Compound 175, 2-[(biphenyl-4-ylcarbonyl)(methyl)amino]-N-cyclopropyl-N′-hydroxypropanediamide], which IC50 is on record?
Answer: The IC50 was > 0.1 µM.

Question: `CNC(=O)C(C(=O)NO)N(C)C(=O)c1ccc(CCc2ccc(NCCO)cc2)cc1` (centres unmarked) [Compound 176, N-hydroxy-2-{[4-(2-{4-[(2-hydroxyethyl)amino]phenyl}ethyl)benzoyl](methyl)amino}-N′-methylpropanediamide] was tested. Which IC50 did it give?
Answer: The IC50 was < 0.01 µM.

Question: With `CN(C(=O)c1ccc(-c2ccccc2)cc1)C(C(=O)NO)C(=O)NCc1cccnc1` (centres unmarked) [Compound 177, 2-[(biphenyl-4-ylcarbonyl)(methyl)amino]-N-hydroxy-N′-(pyridin-3-ylmethyl)propanediamide] as the molecule, how does the IC50 read?
Answer: The IC50 was 0.01 to 0.1 µM.

Question: Which IC50 does the source give for `CN(C(=O)c1ccc(-c2ccccc2)cc1)C(C(=O)NO)C(=O)NCc1ccncc1` (centres unmarked) [Compound 178, 2-[(biphenyl-4-ylcarbonyl)(methyl)amino]-N-hydroxy-N′-(pyridin-4-ylmethyl)propanediamide] here?
Answer: Its IC50 is > 0.1 µM.

Question: How did the IC50 turn out when `CNC(=O)C(C(=O)NO)N(C)C(=O)c1ccc(-c2ccc(NCCO)cc2)cc1` (centres unmarked) [Compound 179, N-hydroxy-2-[({4′-[(2-hydroxyethyl)amino]biphenyl-4-yl}carbonyl)(methyl)amino]-N′-methylpropanediamide] was run?
Answer: Its IC50 is < 0.01 µM.

Question: `CNC(=O)C(C(=O)NO)N(C)C(=O)c1ccc(-c2ccc(OCCCCO)cc2)cc1` (centres unmarked) [Compound 180, N-hydroxy-2-[{[4′-(4-hydroxybutoxy)biphenyl-4-yl]carbonyl}(methyl)amino]-N′-methylpropanediamide] was tested. Which IC50 did it give?
Answer: Its IC50 is < 0.01 µM.

Question: `CNC(=O)C(C(=O)NO)N(C)C(=O)c1ccc(-c2ccc(OCCC(O)CO)cc2)cc1` (centres unmarked) [Compound 181, 2-[{[4′-(3,4-dihydroxybutoxy)biphenyl-4-yl]carbonyl}(methyl)amino]-N-hydroxy-N′-methylpropanediamide] was tested. Which IC50 did it give?
Answer: The IC50 was < 0.01 µM.

Question: Which IC50 does the source give for `CCCc1ccc(-c2ccc(C(=O)N(C)C(C(=O)NC)C(=O)NO)cc2)cc1` (centres unmarked) [Compound 182, N-hydroxy-N′-methyl-2-{methyl[(4′-propylbiphenyl-4-yl)carbonyl]amino}propanediamide] here?
Answer: Its IC50 is < 0.01 µM.

Question: For `CNC(=O)C(C(=O)NO)N(C)C(=O)c1ccc(C#Cc2ccc(NCCO)cc2)cc1` (centres unmarked) [Compound 183, N-hydroxy-2-{[4-({4-[(2-hydroxyethyl)amino]phenyl}ethynyl)benzoyl](methyl)amino}-N′-methylpropanediamide], which IC50 is on record?
Answer: The IC50 was < 0.01 µM.

Question: With `CNC(=O)C(C(=O)NO)N(C)C(=O)c1ccc(-c2ccc3occc3c2)cc1` (centres unmarked) [Compound 184, 2-{[4-(1-benzofuran-5-yl)benzoyl](methyl)amino}-N-hydroxy-N′-methylpropanediamide] as the molecule, how does the IC50 read?
Answer: The IC50 was < 0.01 µM.

Question: Which IC50 does the source give for `CNC(=O)C(C(=O)NO)N(C)C(=O)c1ccc(-c2ccc(CCCO)cc2)cc1O` (centres unmarked) [Compound 185, N-hydroxy-2-[{[3-hydroxy-4′-(3-hydroxypropyl)biphenyl-4-yl]carbonyl}(methyl)amino]-N′-methylpropanediamide] here?
Answer: The IC50 was > 0.1 µM.

Question: For `CN(C(=O)c1ccc(-c2ccccc2)cc1)C(C(N)=O)C(=O)NO` (centres unmarked) [Compound 186, 2-[(biphenyl-4-ylcarbonyl)(methyl)amino]-N-hydroxypropanediamide], which IC50 is on record?
Answer: The IC50 was 0.01 to 0.1 µM.

Question: For `CNC(=O)C(C(=O)NO)N(C)C(=O)c1ccc(-c2ccc(C3OCCO3)cc2)cc1` (centres unmarked) [Compound 187, 2-[{[4′-(1,3-dioxolan-2-yl)biphenyl-4-yl]carbonyl}(methyl)amino]-N-hydroxy-N′-methylpropanediamide], which IC50 is on record?
Answer: The IC50 was < 0.01 µM.

Question: `CNC(=O)C(C(=O)NO)N(C)C(=O)c1ccc(-c2ccc3nonc3c2)cc1` (centres unmarked) [Compound 189, 2-{[4-(2,1,3-benzoxadiazol-5-yl)benzoyl](methyl)amino}-N-hydroxy-N′-methylpropanediamide] was tested. Which IC50 did it give?
Answer: The IC50 was 0.01 to 0.1 µM.

Question: Which IC50 does the source give for `CNC(=O)C(C(=O)NO)N(C)C(=O)c1ccc(-c2ccccc2)nc1` (centres unmarked) [Compound 190, N-hydroxy-N′-methyl-2-{methyl[(6-phenylpyridin-3-yl)carbonyl]amino}propanediamide] here?
Answer: The IC50 was > 0.1 µM.

Question: For `CNC(=O)C(C(=O)NO)N(C)C(=O)c1ccc(-c2ccc(OCCOC)cc2)cc1` (centres unmarked) [Compound 191, N-hydroxy-2-[{[4′-(2-methoxyethoxy)biphenyl-4-yl]carbonyl}(methyl)amino]-N′-methylpropanediamide], which IC50 is on record?
Answer: The IC50 was < 0.01 µM.

Question: For `CNC(=O)C(C(=O)NO)N(C)C(=O)c1ccc(-c2cnc3ccccc3c2)cc1` (centres unmarked) [Compound 192, N-hydroxy-N′-methyl-2-{methyl[4-(quinolin-3-yl)benzoyl]amino}propanediamide], which IC50 is on record?
Answer: The IC50 was 0.01 to 0.1 µM.

Question: With `CNC(=O)C(C(=O)NO)N(CCF)C(=O)c1ccc(-c2ccccc2)cc1` (centres unmarked) [Compound 193, 2-[(biphenyl-4-ylcarbonyl)(2-fluoroethyl)amino]-N-hydroxy-N′-methylpropanediamide] as the molecule, how does the IC50 read?
Answer: The IC50 was < 0.01 µM.

Question: Which IC50 does the source give for `CNC(=O)C(C(=O)NO)N(C)C(=O)c1ccc(-c2ccc(CN(C)C)cc2)cc1` (centres unmarked) [Compound 194, 2-[({4′-[(dimethylamino)methyl]biphenyl-4-yl}carbonyl)(methyl)amino]-N-hydroxy-N′-methylpropanediamide] here?
Answer: The IC50 was > 0.1 µM.

Question: Which IC50 does the source give for `CNC(=O)C(C(=O)NO)N(C)C(=O)c1ccc(-c2ccc(/C=N/O)cc2)cc1` (centres unmarked) [Compound 195, N-hydroxy-2-[({4′-[(E)-(hydroxyimino)methyl]biphenyl-4-yl}carbonyl)(methyl)amino]-N′-methylpropanediamide] here?
Answer: Its IC50 is < 0.01 µM.

Question: For `CNC(=O)C(C(=O)NO)N(C)C(=O)c1ccc(-c2ccc3c(cnn3C)c2)cc1` (centres unmarked) [Compound 196, N-hydroxy-N′-methyl-2-{methyl[4-(1-methyl-1H-indazol-5-yl)benzoyl]amino}propanediamide], which IC50 is on record?
Answer: The IC50 was < 0.01 µM.

Question: Which IC50 does the source give for `CNC(=O)C(C(=O)NO)N(C)C(=O)c1ccc(-c2ccc3nn(C)cc3c2)cc1` (centres unmarked) [Compound 197, N-hydroxy-N′-methyl-2-{methyl[4-(2-methyl-2H-indazol-5-yl)benzoyl]amino}propanediamide] here?
Answer: The IC50 was 0.01 to 0.1 µM.

Question: How did the IC50 turn out when `CNC(=O)C(C(=O)NO)N(C(=O)c1ccc(-c2ccc(OCCCN3CCOCC3)cc2)cc1)C1CC1` (centres unmarked) [Compound 198, 2-[cyclopropyl({4′-[3-(morpholin-4-yl)propoxy]biphenyl-4-yl}carbonyl)amino]-N-hydroxy-N′-methylpropanediamide] was run?
Answer: The IC50 was < 0.01 µM.

Question: For `CNC(=O)C(C(=O)NO)N(C)C(=O)c1ccc(-c2ccc3ncsc3c2)cc1` (centres unmarked) [Compound 199, 2-{[4-(1,3-benzothiazol-6-yl)benzoyl](methyl)amino}-N-hydroxy-N′-methylpropanediamide], which IC50 is on record?
Answer: Its IC50 is < 0.01 µM.

Question: For `CNC(=O)C(C(=O)NO)N(C)C(=O)c1ccc(-c2ccc3ncccc3c2)cc1` (centres unmarked) [Compound 200, N-hydroxy-N′-methyl-2-{methyl[4-(quinolin-6-yl)benzoyl]amino}propanediamide], which IC50 is on record?
Answer: Its IC50 is < 0.01 µM.

Question: For `CNC(=O)C(C(=O)NO)N(C)C(=O)c1ccc(-c2ccc3[nH]ccc3c2)cc1` (centres unmarked) [Compound 201, N-hydroxy-2-{[4-(1H-indol-5-yl)benzoyl](methyl)amino}-N′-methylpropanediamide], which IC50 is on record?
Answer: The IC50 was < 0.01 µM.

Question: For `CNC(=O)C(C(=O)NO)N(C)C(=O)c1ccc(C#Cc2ccc(CN(C)C)cc2)cc1` (centres unmarked) [Compound 202, 2-{[4-({4-[(dimethylamino)methyl]phenyl}ethynyl)benzoyl](methyl)amino}-N-hydroxy-N′-methylpropanediamide], which IC50 is on record?
Answer: Its IC50 is 0.01 to 0.1 µM.

Question: `CNC(=O)C(C(=O)NO)N(C)C(=O)c1ccc(-c2ccc3[nH]c(C)cc3c2)cc1` (centres unmarked) [Compound 203, N-hydroxy-N′-methyl-2-{methyl[4-(2-methyl-1H-indol-5-yl)benzoyl]amino}propanediamide] was tested. Which IC50 did it give?
Answer: The IC50 was < 0.01 µM.

Question: Which IC50 does the source give for `CNC(=O)C(C(=O)NO)N(C)C(=O)c1ccc(-c2ccc(CNCC(F)F)cc2)cc1` (centres unmarked) [Compound 204, 2-{[(4′-{[(2,2-difluoroethyl)amino]methyl}biphenyl-4-yl)carbonyl](methyl)amino}-N-hydroxy-N′-methylpropanediamide] here?
Answer: The IC50 was 0.01 to 0.1 µM.

Question: `CNC(=O)C(C(=O)NO)N(C)C(=O)c1ccc(-c2ccc(CNC3CC3)cc2)cc1` (centres unmarked) [Compound 205, 2-[({4′-[(cyclopropylamino)methyl]biphenyl-4-yl}carbonyl)(methyl)amino]-N-hydroxy-N′-methylpropanediamide] was tested. Which IC50 did it give?
Answer: Its IC50 is 0.01 to 0.1 µM.

Question: With `CNC(=O)C(C(=O)NO)N(C)C(=O)c1ccc(C#Cc2ccc(CCN3CCOCC3)cc2)cc1` (centres unmarked) [Compound 206, N-hydroxy-N′-methyl-2-{methyl[4-({4-[2-(morpholin-4-yl)ethyl]phenyl}ethynyl)benzoyl]amino}propanediamide] as the molecule, how does the IC50 read?
Answer: Its IC50 is < 0.01 µM.
